Seven molecules from US7635716B2, “Substituted cyclopentanes or cyclopentanones as therapeutic agents” (Allergan, Inc., priority 2005, dated 2009) can be followed below.

Broadly, the Ki is the dissociation constant of the complex between target and ligand, obtained from inhibition or displacement.

One test concerns the target T1, hEP4 (Homo sapiens, UniProt P35408).
T1 construct: expressed in transfected cells; host or cells: HEK-293 cells (plasma membrane fraction)
The test is described as follows: Radioligand binding, [3H]PGE2, HEK-293 cells stably expressing EP4 receptors. As for the experimental part:
(§1) HEK-293 cells stably expressing the human or feline FP receptor, or EP1, EP2, or EP4 receptors were washed with TME buffer, scraped from the bottom of the flasks, and homogenized for 30 sec using a Brinkman PT 10/35 polytron. TME buffer was added to achieve a final 40 ml volume in the centrifuge tubes (the composition of TME is 100 mM TRIS base, 20 mM MgCl2, […]; 10N HCl is added to achieve a pH of 7.4).
(§2) The cell homogenate was centrifuged at 19000 r.p.m. for 20 min at 4° C. using a Beckman Ti-60 rotor. The resultant pellet was resuspended in TME buffer to give a final 1 mg/ml protein concentration, as determined by Biorad assay. Radioligand binding competition assays vs. [^3H—]17 phenyl PGF2. (5 nM) were performed in a 100 μl volume for 60 min. Binding reactions were started by adding plasma membrane fraction. The reaction was terminated by the addition of 4 ml ice-cold TRIS-HCl buffer and rapid filtration through glass fiber GF/B filters using a Brandel cell harvester. The filters were washed 3 times with ice-cold buffer and oven dried for one hour.
[^3H—] PGE2 (specific activity 180 Ci mmol) was used as the radioligand for EP receptors. [^3H] 17-phenyl PGF2α was employed for FP receptor binding studies. […] A 200 μl assay volume was used. Incubations were for 60 min at 25° C. and were terminated by the addition of 4 ml of ice-cold 50 mM TRIS-HCl, followed by rapid filtration through Whatman GF/B filters and three additional 4 ml washes in a cell harvester (Brandel). Competition studies were performed using a final concentration of 5 nM [^3H]-PGE2, or 5 nM [^3H] 17-phenyl PGF2α and non-specific binding determined with 10^−5M of unlabeled PGE2, or 17-phenyl PGF2α, according to receptor subtype studied.

The next test has as its target hEP2 (Homo sapiens, UniProt P43116). The test is described as follows: Competition binding, [3H]PGE2, HEK 293 cells stably expressing human EP2 receptors. Further details: expressed in transfected cells; host or cells: HEK 293 cells (membranes or whole cells). As for the experimental part: Competition binding experiments were performed in a medium containing Hank's balanced salt solution, Hepes 20 mM, pH 7.3, membranes (˜60 μg protein) or 2×10^5 cells from HEK 293 cells stably expressing human EP2 receptors, [^3H]PGE2 (10 nM) and various concentrations of test compounds in a total volume of 300 μL. Reaction mixtures were incubated at 23° C. for 60 min, and were filtered over Whatman GF/B filters under vacuum. Filters were washed three times with 5 ml ice-cold buffer containing 50 mM Tris/HCl (pH 7.3). Non-specific binding was estimated in the presence of excess unlabeled PGE2 (10 μM). Binding data fitted to the binding model for a single class of binding sites, using nonlinear regression analysis. IC50 values thus obtained were converted to Ki using the equation of Ki=(IC50/(1+[L]/KD) where [L] represents PGE2 concentration (10 nM) and KD the dissociation constant for [^3H]PGE2 at human EP2 receptors (40 nM).
as §1, §2
[^3H—] PGE2 (specific activity 180 Ci mmol) was used as the radioligand for EP receptors. [^3H] 17-phenyl PGF2α was employed for FP receptor binding studies. Binding studies employing EP1, EP2, EP4 and FP receptors were performed in duplicate in at least three separate experiments. A 200 μl assay volume was used. Incubations were for 60 min at 25° C. and were terminated by the addition of 4 ml of ice-cold 50 mM TRIS-HCl, followed by rapid filtration through Whatman GF/B filters and three additional 4 ml washes in a cell harvester (Brandel). Competition studies were performed using a final concentration of 5 nM [^3H]-PGE2, or 5 nM [^3H] 17-phenyl PGF2α and non-specific binding determined with 10^−5M of unlabeled PGE2, or 17-phenyl PGF2α, according to receptor subtype studied.

[1] abbreviates: Table 1, first part, triplicate, read-out: binding data (Ki) hEP4.
[2] abbreviates: Table 1, first part, triplicate, read-out: binding data (Ki) hEP2.
The mark [3] stands for this setting: Table 1, second part, read-out: hEP4 Ki.
Setting [4] is: Table 1, second part, read-out: hEP2 Ki.

Read-outs that look alike come from different tables or passages of the source.

T1 sequence (P35408 whole entry): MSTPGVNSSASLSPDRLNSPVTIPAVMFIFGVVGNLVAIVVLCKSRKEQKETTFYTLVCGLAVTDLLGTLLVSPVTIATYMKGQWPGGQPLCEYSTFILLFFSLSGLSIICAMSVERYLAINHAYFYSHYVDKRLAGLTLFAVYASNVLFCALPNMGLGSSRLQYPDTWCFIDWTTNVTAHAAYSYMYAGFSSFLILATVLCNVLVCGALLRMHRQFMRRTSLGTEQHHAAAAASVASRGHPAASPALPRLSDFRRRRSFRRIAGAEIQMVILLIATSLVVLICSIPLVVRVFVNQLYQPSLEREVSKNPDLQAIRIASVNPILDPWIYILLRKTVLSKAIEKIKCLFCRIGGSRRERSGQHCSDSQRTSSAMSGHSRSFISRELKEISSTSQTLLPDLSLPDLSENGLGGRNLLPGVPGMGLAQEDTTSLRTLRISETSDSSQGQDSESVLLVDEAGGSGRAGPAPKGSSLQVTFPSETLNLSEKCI
hEP2, sequence (P43116 whole entry): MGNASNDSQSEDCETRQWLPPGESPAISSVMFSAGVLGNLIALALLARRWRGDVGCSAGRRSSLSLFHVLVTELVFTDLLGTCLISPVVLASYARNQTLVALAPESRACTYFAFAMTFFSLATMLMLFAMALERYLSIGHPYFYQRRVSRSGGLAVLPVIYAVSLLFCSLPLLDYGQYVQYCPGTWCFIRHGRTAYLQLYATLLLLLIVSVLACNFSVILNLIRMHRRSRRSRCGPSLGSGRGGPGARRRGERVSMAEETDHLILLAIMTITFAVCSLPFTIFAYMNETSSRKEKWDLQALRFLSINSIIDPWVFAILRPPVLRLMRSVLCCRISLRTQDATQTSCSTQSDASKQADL

Regarding `O=C(O)CCCCCC[C@@H]1[C@@H](COc2cc(Cl)cc(Cl)c2)[C@H](O)C[C@H]1Cl` [Example 14, 7-[(1R,2S,3R,5R)-5-Chloro-2-(3,5-dichloro-phenoxymethyl)-3-hydroxy-cyclopentyl]-heptanoic acid], the Ki came to 3.04 µM at hEP4 (setting [1]) and 0.076 µM at hEP2 (setting [2]).

Take `O=C(O)CCCCCC[C@H]1C(=O)CC[C@@H]1COc1ccccc1` [Example 6, 7-((1R,5S)-2-Oxo-5-phenoxymethyl-cyclopentyl)-heptanoic acid]: the Ki turned out to be 2.65 µM on hEP4 (setting [1]) and 6.25 µM at hEP2 (setting [2]).

`O=C(O)CCC/C=C\C[C@@H]1[C@@H](COc2cc(Cl)cc(Cl)c2)[C@H](O)C[C@H]1Cl` [Example 12, (Z)-7-[(1R,2S,3R,5R)-5-Chloro-2-(3,5-dichloro-phenoxymethyl)-3-hydroxy-cyclopentyl]-hept-5-enoic acid]: the Ki amounted to 0.94 µM at hEP4 (setting [1]), 0.94 µM at hEP4 (setting [3]), 0.012 µM on hEP2 (setting [2]) and 0.012 µM at hEP2 (setting [4]).

As to “(Z)-7-((1R,2S,3R)-3-Hydroxy-5-oxo-2-phenoxymethyl-cyclopentyl)-hept-5-enoic acid [Example 4]”, the Ki was more than 10 µM on hEP4 (setting [1]), more than 10 µM on hEP4 (setting [3]), 13.4 µM at hEP2 (setting [2]) and more than 10 µM at hEP2 (setting [4]).

For the molecule `O=C(O)CCC/C=C\C[C@@H]1[C@@H](COc2ccccc2)[C@H](O)C[C@H]1Cl` [Example 8, (Z)-7-((1R,2S,3R,5R)-5-Chloro-3-hydroxy-2-phenoxymethyl-cyclopentyl)-hept-5-enoic acid], the Ki on hEP4 (setting [1]) is more than 10 µM; at hEP4 (setting [3]), more than 10 µM; on hEP2 (setting [2]), 1.26 µM.

In the case of “(Z)-7-((1R,5S)-2-Oxo-5-phenoxymethyl-cyclopent-3-enyl)-hept-5-enoic acid [Example 3]”, the Ki on hEP4 (setting [1]) was more than 10 µM; on hEP4 (setting [3]) it was more than 10 µM; at hEP2 (setting [2]), more than 10 µM; at hEP2 (setting [4]), 13.4 µM.

With `O=C(O)CCCCCC[C@@H]1[C@@H](COc2ccccc2)[C@H](O)C[C@H]1Cl` [Example 10, 7-((1R,2S,3R,5R)-5-Chloro-3-hydroxy-2-phenoxymethyl-cyclopentyl)-heptanoic acid], the Ki on hEP4 (setting [1]) is more than 10 µM; at hEP4 (setting [3]), more than 10 µM; on hEP2 (setting [2]), 1.7 µM.
